Data reported in patent US20240252493A1, “Apelin Receptor Modulators for Treating Age-Related Muscle Conditions” (BIOAGE LABS, INC., priority 2021, published 2024).
“Also recorded” adds a separate entry of the source.

Legend:
apelin receptor = experiment: Apelin receptor protein levels in rat TA after chronic dosing; assay type: in vivo; details: rats, 5 consecutive days oral, 50 mg/kg QD and 200 mg/kg BID
From the text: Administration of an apelin receptor agonist can induce the phosphorylation and activation of AMPK in heart tissue. Tissue samples were lysed using T-PER tissue protein extraction reagent (Thermo Fisher Scientific #78510) containing EDTA and protease/phosphatase inhibitors on the Omni Bead Ruptor 12 Homogenizer. Total protein was extracted then quantified using Pierce™ BCA Protein Assay Kit. Loaded equal amounts of total protein per lane on a 4-12% SDS-PAGE gel and transferred to PVDF membrane. Membranes were blocked and blotted with anti-phospho-AMPKα-Thr172 (Cell Signaling Technology, CST #2535), total-AMPKα (CST #2532), anti-phospho-Akt-SeR^473 (CST #4060), total-Akt (CST #4685), anti-phospho-ERK-1/2-Thr202/Tyr204 of Erk1 and Thr185/Tyr187 of Erk2 (CST #4370), total-ERK-1/2 (CST #9107) or anti-APLNR receptor (abcam, ab214369) antibodies. Band intensities were normalized to loading control anti-β-Actin (CST #3700) or anti-GAPDH (abcam, ab181602) antibodies. Immunoreactive proteins were detected using SuperSignal™ West Femto Substrate (Thermo Fisher Scientific #34095) and quantified by Image Lab™ software (Bio-Rad Laboratories, Inc.).
The difference between tissues was conserved among rodent species: In rats, as in mice, apelin receptor levels in rat tissue were 2-fold higher in heart than in soleus, FIGS. 5A-5B. […]

[1] = test system: Pax7, MyoD, MyoG, Myf5, MyHC3, and MyHC8; experiment: CTX-induced muscle injury: transcript levels of regeneration genes; assay type: in vivo, mice
Experimental: Impairment of muscle regeneration can contribute to age-related muscle weakness. This is particularly true in aged individuals who engage in physical activity. Exercise-induced muscle hypertrophy is linked to the capacity of muscle stem cells to be activated and promote regeneration. […] Mice were i.p injected with buprenorphine (Centravet, 0.1 mg/kg) 30 minutes before injury and the day after. The day of the injury, mice were anesthetized with isoflurane inhalation and hindlimbs were shaved. Then, 10 μM of cardiotoxin (CTX, Latoxan, #L8102) was injected through two injections of 25 μl into the left tibialis muscle and two injections of 50 μl into the left gastrocnemius muscle, using a 22-gauge needle (Hamilton). Mice were euthanized 3 and 7 days after injury by cervical dislocation, muscles (PBS- and CTX-injected) were cut in two parts, one being snap frozen into liquid nitrogen for total RNA extraction and the other part being embedded into OCT, frozen in isopentane cooled with liquid nitrogen for histological analysis.

79-HMC = experiment: Early proliferation marker expression (RT-PCR), older donor cells; assay type: cell-based, human
Experimental: Immortalized human cells from male donors (25-HMC) […] (79-HMC) are grown from the proliferation stage until they become 80% confluent, differentiate, and become myotubes. […] Early proliferation markers (Pax7, Myf5, MyoD, and MyoG were assessed via RT-PCR (FIG. 8D to 8K)

[2] = gastrocnemius, aged mice, 3 or 7 days, apelin 0.5 μmol/kg/day, BGE-105 50 and 200 mg/kg/day
[3] = gastrocnemius, young mice, 3 or 7 days, apelin 0.5 μmol/kg/day, BGE-105 50 and 200 mg/kg/day
[4] = tibialis anterior, aged mice, 7 days, apelin 0.5 μmol/kg/day, BGE-105 50 and 200 mg/kg/day
[5] = tibialis, young mice, 3 or 7 days, apelin 0.5 μmol/kg/day, BGE-105 50 and 200 mg/kg/day

COc1cccc(OC)c1-n1c(NS(=O)(=O)[C@@H](C)[C@H](C)c2ncc(C)cn2)nnc1-c1cncc(C)c1 [BGE-105, (2S,3R)—N-(4-(2,6-dimethoxyphenyl)-5-(5-methyl-3-pyridinyl)-4H-1,2,4-triazol-3-yl)-3-(5-methyl-2-pyrimidinyl)-2-butanesulfonamide]
apelin receptor levels in the TA (apelin receptor): modest but non-significant decrease | expression levels of genes involved in muscle regeneration (Pax7, MyoD, MyoG, Myf5, MyHC3, MyHC8) ([1]; aged (18-month-old) mice, tibialis, 7 days after CTX, vs PBS): significantly higher levels of several mRNA transcripts; also recorded: dramatically higher | effect on regeneration gene expression in gastrocnemius compared with tibialis ([1]; aged mice, gastrocnemius): not as prominent | Pax7 transcript levels ([1]; gastrocnemius, aged (18-month-old) mice, 3 or 7 days, apelin 0.5 μmol/kg/day, BGE-105 50 and 200 mg/kg/day): no significant change | MyoD transcript levels ([1]; gastrocnemius, aged mice, 3 and 7 days, apelin 0.5 μmol/kg/day, BGE-105 50 and 200 mg/kg/day): significant increase | Myf5 transcript levels [1, 2]: no significant change | MyoG transcript levels [1, 2]: no significant change | MyHC8 transcript levels ([1]; gastrocnemius, aged mice, any time point, any treatment): does not show a change | MyHC3 transcript levels ([1]; gastrocnemius, aged mice, only at 7 days, BGE-105 200 mg/kg/day): significant increase | Pax7 transcript levels ([1]; gastrocnemius, young (3-month-old) mice, 3 or 7 days, apelin 0.5 μmol/kg/day, BGE-105 50 and 200 mg/kg/day): no change | Myf5 transcript levels [1, 3]: no change | MyoD transcript levels [1, 3]: no change | MyoG transcript levels [1, 3]: no change | MyHC8 transcript levels ([1]; gastrocnemius, young mice, 3 days, apelin 0.5 μmol/kg/day, BGE-105 50 and 200 mg/kg/day): non-significant increase | MyHC3 transcript levels ([1]; gastrocnemius, young mice, only 3 days, BGE-105 50 mg/kg/day): increase | Pax7 transcript levels ([1]; tibialis anterior, aged (18-month-old) mice, 7 days post cardiotoxin, apelin 0.5 μmol/kg/day, BGE-105 50 and 200 mg/kg/day): significant increase | MyoD transcript levels ([1]; tibialis anterior, aged mice, 3 and 7 days post cardiotoxin, apelin 0.5 μmol/kg/day, BGE-105 50 and 200 mg/kg/day): significant increase | MyHC3 transcript levels [1, 4]: significant increase | Myf5 transcript levels [1, 4]: significant change | MyoG transcript levels [1, 4]: significant increase | Pax7 transcript levels ([1]; tibialis, young (3-month-old) mice, 3 or 7 days, apelin 0.5 μmol/kg/day, BGE-105 50 and 200 mg/kg/day): no change | MyHC3 transcript levels [1, 5]: no significant change | MyHC8 transcript levels [1, 5]: no significant change | Myf5 transcript levels [1, 5]: no difference | MyoD transcript levels [1, 5]: no significant increase | MyoG transcript levels [1, 5]: no difference | effect on regeneration gene expression in young mice ([1]; young (3-month-old) mice): not as effective | expression of muscle cell differentiation markers Pax7, Myf5, MyoD, and MyoG (79-HMC; aged-donor cells): increased the expression | Pax7 levels (79-HMC; older cells, 0.05, 0.5, 5, 50 nM, vs control): significant increase at all treatment doses | MyoG levels (79-HMC; older cells, all treatment levels): increase at all treatment levels | Myf5 expression (79-HMC; older donor cells, 5 and 50 nM): equal to apelin treatment | MyoD levels (79-HMC; older donor cells, all treatment levels): increase at all treatment levels
